Experimental data published in patent US12077503B2, “Substituted cyclic amides and their use as herbicides” (FMC CORPORATION, priority 2015, dated 2024).

What was measured:
Assay type in all cases: in vivo
[1] = system: giant foxtail (Setaria faberi); assay: Test G Pre-Emergence Protocol; settings: Setaria faberi, pre-emergence, 312 h, evaluated after 13 days; for pest or weed control at 15.625 g/ha: 15.625 g ai/ha; for pest or weed control at 15.625 g/ha / pest or weed control at 250 g/ha: read-out: Foxtail, Giant damage rating (100=total damage to plant; 0=no damage to plant); for pest or weed control at 62.5 g/ha: 62.5 g ai/ha, 100=total damage to plant, 0=no damage to plant, read-out: Foxtail, Giant damage rating; for pest or weed control at 250 g/ha: 250 g ai/ha
Summary of the method: (§1)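 Visual injury (0–100) at day 13 after a single pre-emergence spray. Rates: 15.625, 62.5, 250 g/ha in acetone–water 50:50 with 0.5% Tween 20. Growth conditions: 24/16° C, 14 h light, 65% humidity.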

corn (Zea mays) [2] = assay: Test G Pre-Emergence Protocol; settings: Zea mays, pre-emergence, 312 h, evaluated after 13 days; for plant injury at 15.625 g/ha: 15.625 g ai/ha; for plant injury at 15.625 g/ha / plant injury at 250 g/ha: read-out: Corn damage rating (100=total damage to plant; 0=no damage to plant); for plant injury at 62.5 g/ha: 62.5 g ai/ha, 100=total damage to plant, 0=no damage to plant, read-out: Corn damage rating; for plant injury at 250 g/ha: 250 g ai/ha
Summary of the method: as §1

[3] = system: barnyardgrass (Echinochloa crus-galli); assay: Test G Pre-Emergence Protocol; settings: Echinochloa crus-galli, pre-emergence, 312 h, evaluated after 13 days; for pest or weed control at 15.625 g/ha: 15.625 g ai/ha; for pest or weed control at 15.625 g/ha / pest or weed control at 250 g/ha: read-out: Barnyardgrass damage rating (100=total damage to plant; 0=no damage to plant); for pest or weed control at 62.5 g/ha: 62.5 g ai/ha, 100=total damage to plant, 0=no damage to plant, read-out: Barnyardgrass damage rating; for pest or weed control at 250 g/ha: 250 g ai/ha
Summary of the method: as §1

[4] = system: velvetleaf (Abutilon theophrasti); assay: Test G Pre-Emergence Protocol; settings: Abutilon theophrasti, pre-emergence, 312 h, evaluated after 13 days; for pest or weed control at 15.625 g/ha: 15.625 g ai/ha; for pest or weed control at 15.625 g/ha / pest or weed control at 250 g/ha: read-out: Velvetleaf damage rating (100=total damage to plant; 0=no damage to plant); for pest or weed control at 62.5 g/ha: 62.5 g ai/ha, 100=total damage to plant, 0=no damage to plant, read-out: Velvetleaf damage rating; for pest or weed control at 250 g/ha: 250 g ai/ha
Summary of the method: as §1

[5] = system: ivy-leaved morning glory (Ipomoea hederacea); assay: Test G Pre-Emergence Protocol; settings: Ipomoea, pre-emergence, 312 h, evaluated after 13 days; for pest or weed control at 15.625 g/ha: 15.625 g ai/ha; for pest or weed control at 15.625 g/ha / pest or weed control at 250 g/ha: read-out: Morningglory, Ivy-leaved damage rating (100=total damage to plant; 0=no damage to plant); for pest or weed control at 62.5 g/ha: 62.5 g ai/ha, 100=total damage to plant, 0=no damage to plant, read-out: Morningglory, Ivy-leaved damage rating; for pest or weed control at 250 g/ha: 250 g ai/ha
Summary of the method: as §1

[6] = system: redroot pigweed (Amaranthus retroflexus); assay: Test G Pre-Emergence Protocol; settings: Amaranthus retroflexus, pre-emergence, 312 h, evaluated after 13 days; for pest or weed control at 15.625 g/ha: 15.625 g ai/ha; for pest or weed control at 15.625 g/ha / pest or weed control at 250 g/ha: read-out: Pigweed, Redroot damage rating (100=total damage to plant; 0=no damage to plant); for pest or weed control at 62.5 g/ha: 62.5 g ai/ha, 100=total damage to plant, 0=no damage to plant, read-out: Pigweed, Redroot damage rating; for pest or weed control at 250 g/ha: 250 g ai/ha
Summary of the method: as §1

[7] = system: giant foxtail (Setaria faberi); assay: Test G Post-Emergence Protocol; settings: Setaria faberi, post-emergence, 312 h, read-out: Foxtail, Giant damage rating; for pest or weed control at 15.625 g/ha: 15.625 g ai/ha, evaluated after 13 days (100=total damage to plant; 0=no damage to plant); for pest or weed control at 62.5 g/ha: 62.5 g ai/ha; for pest or weed control at 62.5 g/ha / pest or weed control at 250 g/ha: evaluated after 13 days, 100=total damage to plant, 0=no damage to plant; for pest or weed control at 250 g/ha: 250 g ai/ha
Summary of the method: (§2)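 Values are percent visual injury at 13 days after treatment (0 none, 100 total). Treatment was a post-emergence spray at 15.625, 62.5 or 250 g/ha on 8-day-old pot plants kept at 24/16 °C.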

corn (Zea mays) [8] = assay: Test G Post-Emergence Protocol; settings: Zea mays, post-emergence, 312 h, read-out: Corn damage rating; for plant injury at 15.625 g/ha: 15.625 g ai/ha, evaluated after 13 days (100=total damage to plant; 0=no damage to plant); for plant injury at 62.5 g/ha: 62.5 g ai/ha; for plant injury at 62.5 g/ha / plant injury at 250 g/ha: evaluated after 13 days, 100=total damage to plant, 0=no damage to plant; for plant injury at 250 g/ha: 250 g ai/ha
Summary of the method: as §2

[9] = system: barnyardgrass (Echinochloa crus-galli); assay: Test G Post-Emergence Protocol; settings: Echinochloa crus-galli, post-emergence, 312 h, read-out: Barnyardgrass damage rating; for pest or weed control at 15.625 g/ha: 15.625 g ai/ha, evaluated after 13 days (100=total damage to plant; 0=no damage to plant); for pest or weed control at 62.5 g/ha: 62.5 g ai/ha; for pest or weed control at 62.5 g/ha / pest or weed control at 250 g/ha: evaluated after 13 days, 100=total damage to plant, 0=no damage to plant; for pest or weed control at 250 g/ha: 250 g ai/ha
Summary of the method: as §2

[10] = system: velvetleaf (Abutilon theophrasti); assay: Test G Post-Emergence Protocol; settings: Abutilon theophrasti, post-emergence, 312 h, read-out: Velvetleaf damage rating; for pest or weed control at 15.625 g/ha: 15.625 g ai/ha, evaluated after 13 days (100=total damage to plant; 0=no damage to plant); for pest or weed control at 62.5 g/ha: 62.5 g ai/ha; for pest or weed control at 62.5 g/ha / pest or weed control at 250 g/ha: evaluated after 13 days, 100=total damage to plant, 0=no damage to plant; for pest or weed control at 250 g/ha: 250 g ai/ha
Summary of the method: as §2

[11] = system: ivy-leaved morning glory (Ipomoea hederacea); assay: Test G Post-Emergence Protocol; settings: Ipomoea, post-emergence, 312 h, read-out: Morningglory, Ivy-leaved damage rating; for pest or weed control at 15.625 g/ha: 15.625 g ai/ha, evaluated after 13 days (100=total damage to plant; 0=no damage to plant); for pest or weed control at 62.5 g/ha: 62.5 g ai/ha; for pest or weed control at 62.5 g/ha / pest or weed control at 250 g/ha: evaluated after 13 days, 100=total damage to plant, 0=no damage to plant; for pest or weed control at 250 g/ha: 250 g ai/ha
Summary of the method: as §2

[12] = system: redroot pigweed (Amaranthus retroflexus); assay: Test G Post-Emergence Protocol; settings: Amaranthus retroflexus, post-emergence, 312 h, read-out: Pigweed, Redroot damage rating; for pest or weed control at 15.625 g/ha: 15.625 g ai/ha, evaluated after 13 days (100=total damage to plant; 0=no damage to plant); for pest or weed control at 62.5 g/ha: 62.5 g ai/ha; for pest or weed control at 62.5 g/ha / pest or weed control at 250 g/ha: evaluated after 13 days, 100=total damage to plant, 0=no damage to plant; for pest or weed control at 250 g/ha: 250 g ai/ha
Summary of the method: as §2

SMILES | pest or weed control at 15.625 g/ha [1] [%] | pest or weed control at 62.5 g/ha [1] [%] | pest or weed control at 250 g/ha [1] [%] | plant injury at 15.625 g/ha (corn (Zea mays) [2]) [%] | plant injury at 62.5 g/ha (corn (Zea mays) [2]) [%] | plant injury at 250 g/ha (corn (Zea mays) [2]) [%] | pest or weed control at 15.625 g/ha [3] [%] | pest or weed control at 62.5 g/ha [3] [%] | pest or weed control at 250 g/ha [3] [%] | pest or weed control at 15.625 g/ha [4] [%] | pest or weed control at 62.5 g/ha [4] [%] | pest or weed control at 250 g/ha [4] [%] | pest or weed control at 15.625 g/ha [5] [%] | pest or weed control at 62.5 g/ha [5] [%] | pest or weed control at 250 g/ha [5] [%] | pest or weed control at 15.625 g/ha [6] [%] | pest or weed control at 62.5 g/ha [6] [%] | pest or weed control at 250 g/ha [6] [%] | pest or weed control at 15.625 g/ha [7] [%] | pest or weed control at 62.5 g/ha [7] [%] | other results
CN1C[C@H](c2cccc(C(F)(F)F)c2)[C@@H](C(=O)Nc2cccnc2F)C1=O (racemic) [Compound 1809] | 90 | 90 | 90 | 60 | 80 | 90 | 90 | 80 | 90 | 0 | 0 | 50 | 10 | 70 | 80 | 0 | 0 | 60 | 80 | 80 | pest or weed control at 250 g/ha [7]: 80%; plant injury at 15.625 g/ha (corn (Zea mays) [8]): 80%; plant injury at 62.5 g/ha (corn (Zea mays) [8]): 80%; plant injury at 250 g/ha (corn (Zea mays) [8]): 80%; pest or weed control at 15.625 g/ha [9]: 80%; pest or weed control at 62.5 g/ha [9]: 80%; pest or weed control at 250 g/ha [9]: 80%; pest or weed control at 15.625 g/ha [10]: 0%; pest or weed control at 62.5 g/ha [10]: 0%; pest or weed control at 250 g/ha [10]: 40%; pest or weed control at 15.625 g/ha [11]: 20%; pest or weed control at 62.5 g/ha [11]: 70%; pest or weed control at 250 g/ha [11]: 70%; pest or weed control at 15.625 g/ha [12]: 20%; pest or weed control at 62.5 g/ha [12]: 20%; pest or weed control at 250 g/ha [12]: 50%
Cc1c(F)cccc1NC(=O)[C@@H]1C(=O)N(C)C[C@H]1c1ccc2nonc2c1 (racemic) [Compound 1818] | 70 | 90 | 90 | 0 | 0 | 70 | 30 | 30 | 90 | 0 | 30 | 70 | 0 | 10 | 40 | 0 | 0 | 40 | 40 | 80 | pest or weed control at 250 g/ha [7]: 80%; plant injury at 15.625 g/ha (corn (Zea mays) [8]): 0%; plant injury at 62.5 g/ha (corn (Zea mays) [8]): 30%; plant injury at 250 g/ha (corn (Zea mays) [8]): 60%; pest or weed control at 15.625 g/ha [9]: 0%; pest or weed control at 62.5 g/ha [9]: 30%; pest or weed control at 250 g/ha [9]: 80%; pest or weed control at 15.625 g/ha [10]: 0%; pest or weed control at 62.5 g/ha [10]: 0%; pest or weed control at 250 g/ha [10]: 30%; pest or weed control at 15.625 g/ha [11]: 0%; pest or weed control at 62.5 g/ha [11]: 10%; pest or weed control at 250 g/ha [11]: 40%; pest or weed control at 15.625 g/ha [12]: 0%; pest or weed control at 62.5 g/ha [12]: 0%; pest or weed control at 250 g/ha [12]: 0%
CN1C[C@@H](c2ccc(CF)cc2)[C@H](C(=O)Nc2cccc(F)c2F)C1=O (racemic) [Compound 1822] | 90 | 90 | 90 | 0 | 20 | 70 | 70 | 90 | 90 | 0 | 60 | 80 | 0 | 20 | 80 | 0 | 60 | 80 | 70 | 80 | pest or weed control at 250 g/ha [7]: 80%; plant injury at 15.625 g/ha (corn (Zea mays) [8]): 0%; plant injury at 62.5 g/ha (corn (Zea mays) [8]): 40%; plant injury at 250 g/ha (corn (Zea mays) [8]): 60%; pest or weed control at 15.625 g/ha [9]: 70%; pest or weed control at 62.5 g/ha [9]: 80%; pest or weed control at 250 g/ha [9]: 80%; pest or weed control at 15.625 g/ha [10]: 0%; pest or weed control at 62.5 g/ha [10]: 30%; pest or weed control at 250 g/ha [10]: 40%; pest or weed control at 15.625 g/ha [11]: 20%; pest or weed control at 62.5 g/ha [11]: 10%; pest or weed control at 250 g/ha [11]: 30%; pest or weed control at 15.625 g/ha [12]: 0%; pest or weed control at 62.5 g/ha [12]: 10%; pest or weed control at 250 g/ha [12]: 30%
